# Measured values from article PMC7970697, “Inhibition and Induction by Poziotinib of Different Rat Cytochrome P450 Enzymes In Vivo and in an In Vitro Cocktail Method” (Frontiers in Pharmacology, 2021).
# Experiments:
# [1] = system: CYP2D6; conditions: cited from earlier work
# [2] = system: CYP2C9; conditions: 2019, cited from earlier work
# [3] = system: cyp2b1; set-up: method as in Ma et al., 2015; conditions: in rats; ref Ma et al., 2015; cited from earlier work
# [4] = Pharmacokinetics of probe substrates in rats with or without poziotinib pre-treatment; conditions: rats; for AUC(0-t) / AUC(0-inf) / CL/F / Cmax / MRT last / MRT inf / Tmax / Vd/F / half-life: male, Sprague-Dawley, rat, in vivo, po, 10 mg/kg, n = 6; for CL/F: CLz/F; for MRT last: MRT(0–t); for MRT inf: MRT(0–∞); for Vd/F: Vz/F; for half-life: t1/2z
# Protocol: Samples were analyzed by a UPLC-MS/MS system equipped with a triple quadrupole mass spectrometer (Waters Corp., Milford, MA, United States) and Acquity UPLC BEH C18 column (1.7 μm, 2.1 × 50 mm) at 40°C. The mobile phase consisted of acetonitrile (A) and 0.1% formic acid (B) with a linear gradient elution at 0.4 ml/min for 3 min.
# Twelve male Sprague-Dawley rats (230 ± 20 g) were randomly divided into treated and control groups, with 6 in each group. […] The supernatant was mixed with 200 μL of acetonitrile and 20 μL of 0.5 μg/ml diazepam (IS), vortexed for 30 s, centrifuged at 13,000 rpm for 5 min, and the supernatant was injected into the UPLC-MS/MS system for analysis.
# Pharmacokinetic parameters were calculated using DAS software (Version 3.2.8). SPSS software (version 16.0; SPSS Inc., Chicago, IL, United States) was used to analyze the significance of differences between the main pharmacokinetic parameters. p < 0.05 was considered statistically significant. GraphPad (version 8.0; GraphPad Software Inc., San Diego, CA, United States) was used to calculate IC50 and plot the plasma concentration-time curves and inhibition plots (type of inhibition, time- and concentration-dependence).
# [5] = system: cytochrome P450 (CYP) enzymes; set-up: method as in Dungo et al., 2013; conditions: ref Dungo et al., 2013; cited from earlier work
# [6] = Control group: oral probe cocktail only (10 mg/kg; tolbutamide 1 mg/kg)
# [7] = Treated group: oral probe cocktail (10 mg/kg; tolbutamide 1 mg/kg) after 7 days oral poziotinib 5 mg/kg
structure (smiles),measurement,setting,value
COc1cc2ncnc(Nc3ccc(F)c(Cl)c3)c2cc1NC(=O)/C=C/CN1CCCCC1 [dacomitinib],effect on CY2D6,"[1]; ref Shirley, 2018",potent inhibitor
COc1cc2ncnc(Nc3ccc(F)c(Cl)c3)c2cc1OCCCN1CCOCC1 [Gefitinib],effect on CYP2C9,"[2]; ref Prommer, 2004, Hiraide et al.",inhibit
same,effect on CYP2D6,"[1]; ref Prommer, 2004, Hiraide et al., 2019",inhibit
C#Cc1cccc(Nc2ncnc3cc(OCCOC)c(OCCOC)cc23)c1 [Erlotinib],effect on cyp2b1 activity,[3],may inhibit
same,"effect on metabolism of warfarin, a CYP2C9 substrate","[2]; in human, ref Hiraide et al.",inhibit warfarin metabolism
Cc1ncc2n1-c1ccc(Cl)cc1C(c1ccccc1F)=NC2 [Midazolam],AUC(0-t),[4]; [6],1.35 µg·h/mL
same,AUC(0-t),[4]; [7],1.28 µg·h/mL
same,AUC(0-inf),[4]; [6],1.36 µg·h/mL
same,AUC(0-inf),[4]; [7],1.31 µg·h/mL
same,CL/F,[4]; [6],7.67 L/h/kg
same,CL/F,[4]; [7],8.34 L/h/kg
same,Cmax,[4]; [6],0.868 ± 0.251 µg/mL
same,Cmax,[4]; [7],0.582 ± 0.296 µg/mL
same,MRT last,[4]; [6],1.58 ± 0.23 h
same,MRT last,[4]; [7],2.01 ± 0.43 h
same,MRT inf,[4]; [6],1.62 ± 0.24 h
same,MRT inf,[4]; [7],2.44 ± 1.12 h
same,Tmax,[4]; [6],0.33 ± 0.13 h
same,Tmax,[4]; [7],0.58 ± 0.34 h
same,Vd/F,[4]; [6],18.6 ± 5.95 L/kg
same,Vd/F,[4]; [7],32.8 ± 20.8 L/kg
same,half-life,[4]; [6],1.7 ± 0.55 h
same,half-life,[4]; [7],2.67 ± 1.39 h
same,difference in main pharmacokinetic parameters between treated and control group (in words),[4]; poziotinib 5 mg/kg 7 days vs probes only,not significant
CN(C)C/C=C/C(=O)Nc1cc2c(Nc3ccc(F)c(Cl)c3)ncnc2cc1O[C@H]1CCOC1 [Afatinib],inhibition or induction of CYP enzymes,[5],no inhibition or induction
